Columns and labels:
[1] = biological target: T1, Serine/threonine-protein kinase BRSK2 (Homo sapiens) (UniProt Q8IWQ3); assay: Selectivity interaction (KinomeScan (DiscoverX)) EUB0000229b BRSK2; conditions: at 10 µM
T1 sequence (whole entry): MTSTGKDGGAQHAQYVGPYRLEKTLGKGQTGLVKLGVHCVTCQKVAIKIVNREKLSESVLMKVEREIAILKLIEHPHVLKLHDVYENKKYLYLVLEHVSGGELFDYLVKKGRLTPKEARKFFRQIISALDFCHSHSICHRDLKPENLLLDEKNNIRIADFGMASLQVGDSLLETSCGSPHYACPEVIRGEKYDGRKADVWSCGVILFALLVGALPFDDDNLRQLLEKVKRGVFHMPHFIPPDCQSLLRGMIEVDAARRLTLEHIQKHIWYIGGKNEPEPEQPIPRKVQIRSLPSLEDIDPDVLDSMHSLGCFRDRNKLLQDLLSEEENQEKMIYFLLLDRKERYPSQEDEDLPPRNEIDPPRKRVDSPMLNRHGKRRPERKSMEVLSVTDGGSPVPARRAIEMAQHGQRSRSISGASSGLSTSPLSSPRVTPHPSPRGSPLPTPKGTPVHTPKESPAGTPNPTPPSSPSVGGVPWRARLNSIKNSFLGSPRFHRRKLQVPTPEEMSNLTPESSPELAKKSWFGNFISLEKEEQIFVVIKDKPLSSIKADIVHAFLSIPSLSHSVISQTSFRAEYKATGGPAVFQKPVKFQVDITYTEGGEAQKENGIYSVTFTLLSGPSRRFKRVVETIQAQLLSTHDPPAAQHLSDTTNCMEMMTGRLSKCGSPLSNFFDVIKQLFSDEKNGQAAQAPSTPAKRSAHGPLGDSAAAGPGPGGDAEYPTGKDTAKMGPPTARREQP

[2] = biological target: Phosphatidylinositol 4-phosphate 3-kinase C2 domain-containing subunit beta (Homo sapiens) (UniProt O00750); assay: Selectivity interaction (ProQinase) EUB0000171b PIK3C2B
Sequence of Phosphatidylinositol 4-phosphate 3-kinase C2 domain-containing subunit beta (Homo sapiens) (O00750 whole entry, the tested form may be a part): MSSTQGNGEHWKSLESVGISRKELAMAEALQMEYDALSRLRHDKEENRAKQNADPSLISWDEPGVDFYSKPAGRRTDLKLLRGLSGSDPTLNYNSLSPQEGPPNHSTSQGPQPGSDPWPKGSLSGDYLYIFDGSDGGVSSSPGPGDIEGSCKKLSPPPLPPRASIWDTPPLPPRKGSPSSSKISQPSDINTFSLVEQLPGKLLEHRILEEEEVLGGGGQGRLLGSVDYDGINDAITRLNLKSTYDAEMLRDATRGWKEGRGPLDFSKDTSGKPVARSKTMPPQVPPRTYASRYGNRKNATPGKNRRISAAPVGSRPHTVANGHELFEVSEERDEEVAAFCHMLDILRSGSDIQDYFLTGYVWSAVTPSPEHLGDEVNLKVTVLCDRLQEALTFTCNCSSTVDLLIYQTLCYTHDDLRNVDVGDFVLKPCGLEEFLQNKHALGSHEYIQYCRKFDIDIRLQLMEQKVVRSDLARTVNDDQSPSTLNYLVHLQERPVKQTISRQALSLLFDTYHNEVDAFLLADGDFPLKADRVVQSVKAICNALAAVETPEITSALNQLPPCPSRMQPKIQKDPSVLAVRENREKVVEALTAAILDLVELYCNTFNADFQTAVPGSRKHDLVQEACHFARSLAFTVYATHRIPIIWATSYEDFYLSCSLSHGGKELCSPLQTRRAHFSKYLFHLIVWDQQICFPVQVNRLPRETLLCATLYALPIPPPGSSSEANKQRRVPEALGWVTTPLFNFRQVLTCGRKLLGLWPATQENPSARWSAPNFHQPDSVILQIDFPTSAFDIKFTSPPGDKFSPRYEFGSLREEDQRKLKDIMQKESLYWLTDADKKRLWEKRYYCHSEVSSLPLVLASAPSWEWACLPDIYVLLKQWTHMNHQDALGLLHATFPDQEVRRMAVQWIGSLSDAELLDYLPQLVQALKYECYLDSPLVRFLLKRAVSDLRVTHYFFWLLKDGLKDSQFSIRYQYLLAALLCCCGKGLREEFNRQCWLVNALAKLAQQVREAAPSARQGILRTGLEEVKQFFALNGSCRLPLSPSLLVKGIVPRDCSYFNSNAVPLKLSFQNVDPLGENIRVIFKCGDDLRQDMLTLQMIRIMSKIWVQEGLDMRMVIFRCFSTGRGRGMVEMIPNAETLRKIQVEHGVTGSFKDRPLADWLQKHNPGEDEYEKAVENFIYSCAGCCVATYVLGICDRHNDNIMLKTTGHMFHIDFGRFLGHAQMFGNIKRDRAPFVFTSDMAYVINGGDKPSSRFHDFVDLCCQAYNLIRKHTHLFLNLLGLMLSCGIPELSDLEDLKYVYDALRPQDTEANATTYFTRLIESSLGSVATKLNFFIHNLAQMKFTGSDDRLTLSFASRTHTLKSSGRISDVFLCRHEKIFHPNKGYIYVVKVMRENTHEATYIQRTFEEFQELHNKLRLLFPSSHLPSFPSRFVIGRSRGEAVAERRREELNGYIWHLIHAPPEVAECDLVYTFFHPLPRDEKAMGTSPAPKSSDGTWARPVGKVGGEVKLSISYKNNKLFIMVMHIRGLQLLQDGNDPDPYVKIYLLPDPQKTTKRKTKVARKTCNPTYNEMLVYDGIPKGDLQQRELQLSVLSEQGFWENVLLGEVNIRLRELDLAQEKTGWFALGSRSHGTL

[3] = biological target: Mitogen-activated protein kinase 3 (Homo sapiens, UniProt P27361); assay: Selectivity interaction (KinomeScan (DiscoverX)) EUB0001079a MAPK3; conditions: at 1 µM
Sequence of Mitogen-activated protein kinase 3 (P27361 whole entry): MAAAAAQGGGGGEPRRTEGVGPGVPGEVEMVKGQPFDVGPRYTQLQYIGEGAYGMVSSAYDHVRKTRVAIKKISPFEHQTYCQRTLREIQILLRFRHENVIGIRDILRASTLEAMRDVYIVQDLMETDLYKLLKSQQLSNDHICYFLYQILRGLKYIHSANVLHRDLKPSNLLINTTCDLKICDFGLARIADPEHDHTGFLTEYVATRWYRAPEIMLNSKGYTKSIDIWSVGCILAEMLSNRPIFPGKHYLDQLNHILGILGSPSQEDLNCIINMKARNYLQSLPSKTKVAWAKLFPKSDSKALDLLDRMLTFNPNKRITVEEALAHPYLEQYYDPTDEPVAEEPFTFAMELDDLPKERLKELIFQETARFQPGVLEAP

[4] = biological target: Vascular endothelial growth factor receptor 1 (Homo sapiens) (UniProt P17948); assay: Selectivity interaction (KinomeScan (DiscoverX)) EUB0001079a FLT1; conditions: at 1 µM
[5] = biological target: Receptor tyrosine-protein kinase erbB-3 (Homo sapiens) (UniProt P21860); assay: Selectivity interaction (KinomeScan (DiscoverX)) EUB0000666a ERBB3; conditions: at 10 µM
[6] = biological target: Protein kinase C alpha type (Homo sapiens, UniProt P17252); assay: Selectivity interaction (Millipore kinase profiler) EUB0000124b PRKCA; conditions: at 10 µM
[7] = system: Epidermal growth factor receptor (Homo sapiens), P00533 [G719S]; conditions: at 10 µM
[8] = biological target: Rho-associated protein kinase 1 (Homo sapiens) (UniProt Q13464); conditions: at 10 µM
[9] = biological target: T2, Dual specificity mitogen-activated protein kinase kinase 4 (Homo sapiens) (UniProt P45985); assay: Selectivity interaction (LanthaScreen Eu Kinase Binding Assay) EUB0001632a MAP2K4; conditions: at 10 µM
T2 sequence (whole entry): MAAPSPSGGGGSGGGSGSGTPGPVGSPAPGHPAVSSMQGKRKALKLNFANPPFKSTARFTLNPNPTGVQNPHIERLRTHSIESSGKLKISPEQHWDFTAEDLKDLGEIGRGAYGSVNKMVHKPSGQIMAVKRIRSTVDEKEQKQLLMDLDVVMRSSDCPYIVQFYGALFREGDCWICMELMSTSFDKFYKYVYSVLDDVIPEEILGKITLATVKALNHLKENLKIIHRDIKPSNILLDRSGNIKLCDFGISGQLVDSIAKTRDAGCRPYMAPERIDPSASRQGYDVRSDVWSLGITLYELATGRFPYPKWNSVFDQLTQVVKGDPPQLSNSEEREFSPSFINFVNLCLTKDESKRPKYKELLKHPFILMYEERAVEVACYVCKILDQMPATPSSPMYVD

[10] = biological target: Serine/threonine-protein kinase Nek7 (Homo sapiens) (UniProt Q8TDX7); assay: Selectivity interaction (Kinase panel (Invitrogen)) EUB0000639a NEK7; conditions: at 200 nM
Sequence of Serine/threonine-protein kinase Nek7 (Homo sapiens) (Q8TDX7 whole entry, looked up): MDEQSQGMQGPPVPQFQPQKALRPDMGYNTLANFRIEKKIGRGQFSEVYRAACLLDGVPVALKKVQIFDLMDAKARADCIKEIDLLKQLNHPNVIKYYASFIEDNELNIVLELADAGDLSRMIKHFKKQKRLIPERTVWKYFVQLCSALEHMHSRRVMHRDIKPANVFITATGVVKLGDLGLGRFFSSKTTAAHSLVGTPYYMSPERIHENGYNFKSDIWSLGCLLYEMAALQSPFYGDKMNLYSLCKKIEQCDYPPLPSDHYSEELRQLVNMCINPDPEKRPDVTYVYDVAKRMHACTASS

[11] = biological target: Ribosomal protein S6 kinase alpha-3 (Homo sapiens, UniProt P51812); assay: Selectivity interaction (Kinase panel (Invitrogen)) EUB0000639a RPS6KA3; conditions: at 200 nM
[12] = biological target: Polycomb protein SUZ12 (Homo sapiens) (UniProt Q15022); assay: Selectivity interaction (Methyltransferase screen (radiometric assays, panel of 8 PRMTs, 21 protein lysine methyltransferases, 3 DNA methyltransferases, and one RNA methyltransferase)) EUB0000271b SUZ12
Sequence of Polycomb protein SUZ12 (Homo sapiens) (Q15022 whole entry): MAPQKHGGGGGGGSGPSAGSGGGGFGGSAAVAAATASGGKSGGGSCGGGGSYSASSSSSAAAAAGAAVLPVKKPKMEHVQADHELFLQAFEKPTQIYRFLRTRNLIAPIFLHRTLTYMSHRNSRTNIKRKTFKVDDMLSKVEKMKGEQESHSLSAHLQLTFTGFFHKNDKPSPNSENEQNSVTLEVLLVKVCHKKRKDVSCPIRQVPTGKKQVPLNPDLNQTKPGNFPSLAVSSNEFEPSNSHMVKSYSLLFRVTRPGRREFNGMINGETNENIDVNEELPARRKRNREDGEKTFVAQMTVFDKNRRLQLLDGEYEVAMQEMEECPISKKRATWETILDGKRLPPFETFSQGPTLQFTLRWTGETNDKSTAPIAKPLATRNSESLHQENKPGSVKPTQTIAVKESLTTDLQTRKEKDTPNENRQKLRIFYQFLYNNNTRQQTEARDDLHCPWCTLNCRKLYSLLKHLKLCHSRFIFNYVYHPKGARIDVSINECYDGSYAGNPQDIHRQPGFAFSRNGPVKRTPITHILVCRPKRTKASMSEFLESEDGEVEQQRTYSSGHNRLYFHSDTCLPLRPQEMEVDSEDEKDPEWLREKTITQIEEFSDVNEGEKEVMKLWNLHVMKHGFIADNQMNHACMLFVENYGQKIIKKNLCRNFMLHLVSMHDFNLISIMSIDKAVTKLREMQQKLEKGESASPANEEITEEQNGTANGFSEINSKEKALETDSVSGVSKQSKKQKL

[13] = biological target: Mitogen-activated protein kinase kinase kinase 1 (Homo sapiens, UniProt Q13233); assay: Selectivity interaction (KinomeScan (DiscoverX)) EUB0000695a MAP3K1; conditions: at 100 nM
[14] = biological target: Serine/threonine-protein kinase 32B (Homo sapiens) (UniProt Q9NY57); assay: Selectivity interaction (KinomeScan (DiscoverX)) EUB0000695a STK32B; conditions: at 100 nM
[15] = biological target: Serine/threonine-protein kinase 32A (Homo sapiens) (UniProt Q8WU08); assay: Selectivity interaction (KinomeScan (DiscoverX)) EUB0000595a STK32A; conditions: at 10 µM
[16] = biological target: Eukaryotic translation initiation factor 2-alpha kinase 1 (Homo sapiens) (UniProt Q9BQI3); assay: Selectivity interaction (KinomeScan (DiscoverX)) EUB0000595a EIF2AK1; conditions: at 10 µM
Sequence of Eukaryotic translation initiation factor 2-alpha kinase 1 (Homo sapiens) (Q9BQI3 whole entry): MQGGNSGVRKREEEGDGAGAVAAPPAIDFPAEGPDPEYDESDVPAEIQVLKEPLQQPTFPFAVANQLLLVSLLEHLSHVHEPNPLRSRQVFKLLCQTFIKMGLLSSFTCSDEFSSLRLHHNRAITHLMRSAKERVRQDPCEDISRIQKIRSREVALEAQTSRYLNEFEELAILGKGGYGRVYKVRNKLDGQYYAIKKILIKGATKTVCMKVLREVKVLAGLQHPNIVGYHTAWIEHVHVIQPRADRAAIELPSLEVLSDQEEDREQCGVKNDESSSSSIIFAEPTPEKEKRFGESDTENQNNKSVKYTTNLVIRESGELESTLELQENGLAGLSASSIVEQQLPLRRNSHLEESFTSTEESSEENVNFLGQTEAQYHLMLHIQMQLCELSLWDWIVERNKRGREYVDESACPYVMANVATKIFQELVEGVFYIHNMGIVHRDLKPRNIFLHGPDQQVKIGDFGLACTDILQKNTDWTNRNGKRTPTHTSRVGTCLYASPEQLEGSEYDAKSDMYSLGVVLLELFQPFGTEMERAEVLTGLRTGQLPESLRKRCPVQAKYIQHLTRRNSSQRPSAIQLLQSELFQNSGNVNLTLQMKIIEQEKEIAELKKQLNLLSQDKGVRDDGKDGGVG

[17] = biological target: Mitogen-activated protein kinase kinase kinase kinase 4 (Homo sapiens, UniProt O95819); assay: Selectivity interaction (KinomeScan (DiscoverX)) EUB0000045b MAP4K4
Sequence of Mitogen-activated protein kinase kinase kinase kinase 4 (O95819 2-1239 limits assumed): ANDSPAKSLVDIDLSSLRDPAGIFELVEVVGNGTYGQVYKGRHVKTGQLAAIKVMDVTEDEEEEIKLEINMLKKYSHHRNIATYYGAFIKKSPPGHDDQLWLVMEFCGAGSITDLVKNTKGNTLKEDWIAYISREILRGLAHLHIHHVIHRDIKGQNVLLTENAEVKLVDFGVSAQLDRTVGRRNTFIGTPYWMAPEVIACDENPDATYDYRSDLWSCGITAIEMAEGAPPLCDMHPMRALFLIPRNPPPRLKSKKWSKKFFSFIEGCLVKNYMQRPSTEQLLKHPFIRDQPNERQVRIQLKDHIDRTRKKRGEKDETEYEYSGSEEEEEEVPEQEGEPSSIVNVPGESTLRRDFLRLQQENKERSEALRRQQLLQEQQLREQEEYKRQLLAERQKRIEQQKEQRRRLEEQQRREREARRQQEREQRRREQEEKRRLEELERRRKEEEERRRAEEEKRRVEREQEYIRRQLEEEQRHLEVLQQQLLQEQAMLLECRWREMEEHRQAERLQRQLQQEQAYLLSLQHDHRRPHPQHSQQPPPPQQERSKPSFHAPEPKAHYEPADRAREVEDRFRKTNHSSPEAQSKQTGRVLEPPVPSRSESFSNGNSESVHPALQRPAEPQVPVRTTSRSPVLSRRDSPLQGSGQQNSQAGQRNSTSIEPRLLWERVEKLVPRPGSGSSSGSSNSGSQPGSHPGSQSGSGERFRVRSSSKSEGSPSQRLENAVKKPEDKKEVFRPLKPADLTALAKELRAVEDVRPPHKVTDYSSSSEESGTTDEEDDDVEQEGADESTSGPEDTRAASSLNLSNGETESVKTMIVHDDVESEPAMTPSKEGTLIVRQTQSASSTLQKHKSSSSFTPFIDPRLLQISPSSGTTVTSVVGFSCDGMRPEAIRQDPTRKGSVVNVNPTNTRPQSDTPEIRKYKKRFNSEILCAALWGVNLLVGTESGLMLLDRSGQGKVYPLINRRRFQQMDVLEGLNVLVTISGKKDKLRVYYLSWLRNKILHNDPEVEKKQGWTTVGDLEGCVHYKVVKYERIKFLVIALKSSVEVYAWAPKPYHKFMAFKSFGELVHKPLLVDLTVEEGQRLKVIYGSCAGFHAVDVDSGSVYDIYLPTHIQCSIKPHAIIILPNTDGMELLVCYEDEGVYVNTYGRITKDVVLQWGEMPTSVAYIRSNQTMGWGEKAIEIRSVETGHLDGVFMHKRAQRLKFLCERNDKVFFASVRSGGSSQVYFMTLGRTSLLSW

[18] = biological target: Mitogen-activated protein kinase 7 (Homo sapiens) (UniProt Q13164); assay: Selectivity interaction (Kinase panel (Carna Biosciences)) EUB0001542aTs MAPK7; conditions: at 1 µM
[19] = biological target: Neuromedin-K receptor (Homo sapiens) (UniProt P29371); assay: Selectivity interaction (Eurofins CEREP Diversity Profile (receptors and ion channels)) EUB0000279b TACR3; conditions: at 10 µM
[20] = biological target: Serine/threonine-protein kinase PAK 4 (Homo sapiens, UniProt O96013); assay: Selectivity interaction (Ambit KINOMEscan and KiNATiv profiling in Jurkat cells) EUB0000090b PAK4; assay type: cell-based; conditions: at 1 µM
[21] = biological target: Tyrosine-protein kinase JAK1 (Homo sapiens, UniProt P23458); assay: Selectivity interaction (Ambit KINOMEscan and KiNATiv profiling in Jurkat cells) EUB0000090b JAK1; assay type: cell-based; conditions: at 1 µM
[22] = biological target: Tyrosine-protein kinase Lck (Homo sapiens, UniProt P06239); assay: Selectivity interaction (KinomeScan (DiscoverX)) EUB0001619a LCK; conditions: at 1 µM

**Q.** `COc1cc(N(C)c2ccnc3ccc(C(F)(F)F)cc23)cc(OC)c1OC` was tested. Which % binding [1] did it give?
**A.** The % binding was 90%.

**Q.** Which % of control ([2]; at 1 µM) does the source give for `C=CC(=O)Nc1cccc(C(=O)Nc2ccc(Nc3cc(-c4[nH]c(SC)nc4C)ccn3)cc2)c1` here?
**A.** The % of control was 132%.

**Q.** And the % of control ([2]; at 5 µM)?
**A.** The % of control was 133%.

**Q.** Which % of control [3] does the source give for `Nc1cnc(N2CCc3cc(S(=O)(=O)Nc4c(F)cc(Cl)cc4F)cc(N4CCCC4=O)c32)nc1` [TP-020n] here?
**A.** Its % of control is 91%.

**Q.** And the % of control [4]?
**A.** The % of control was 93%.

**Q.** How did the % of control [5] turn out when `O=C(NOC[C@H](O)CO)c1ccc(F)c(F)c1Nc1ccc(I)cc1F` was run?
**A.** Its % of control is 100%.

**Q.** With `CC(=O)Nc1cccc(-n2c(=O)n(C3CC3)c(=O)c3c(Nc4ccc(I)cc4F)n(C)c(=O)c(C)c32)c1` as the molecule, how does the % of control [6] read?
**A.** The % of control was 101%.

**Q.** Which results are given for `Cc1cc([C@@H](C)Nc2ccccc2C(=O)O)c2nc(N3CCOCC3)cc(=O)n2c1` [AZD-6482]?
**A.** % of control [7]: 98%; % of control [8]: 73%

**Q.** Which % of inhibition [9] does the source give for `Cn1cc(-n2cnc3c(NCc4nc5cc(Cl)c(Cl)cc5[nH]4)nc(N4CCOCC4)nc32)cn1` here?
**A.** Its % of inhibition is -62.3%.

**Q.** How did the % of inhibition [10] turn out when `CC[C@@H]1[C@H](F)C(=O)N[C@@H]1COc1nccc2cc(C(N)=O)c(OC)cc12` [ZIMLOVISERTIB] was run?
**A.** The % of inhibition was -1.03%.

**Q.** And the % of inhibition [11]?
**A.** The % of inhibition was -6.31%.

**Q.** Which % of activity ([12]; at 1 µM) does the source give for `Cc1cc(C)cc([C@@H]2c3cc(C)ccc3NC(=O)CN2C(=O)c2ccc(Br)s2)c1` here?
**A.** Its % of activity is 101%.

**Q.** And the % of activity ([12]; at 10 µM)?
**A.** Its % of activity is 101%.

**Q.** `Cc1cc(F)c(C(=O)Nc2cccc(-c3nncn3C(C)C)n2)cc1-n1cnc(C2CC2)c1` was tested. Which % of control [13] did it give?
**A.** The % of control was 100%.

**Q.** And the % of control [14]?
**A.** Its % of control is 93%.

**Q.** `COCC(=O)NC/C=C/c1ccc2ncnc(Nc3ccc(Oc4ccc(C)nc4)c(C)c3)c2c1` [CP-724714] was tested. Which % of control [15] did it give?
**A.** The % of control was 100%.

**Q.** And the % of control [16]?
**A.** The % of control was 100%.

**Q.** For `C=CC(=O)Nc1cc(-n2c(=O)ccc3cnc4ccc(-c5ccc(NS(C)(=O)=O)cc5)cc4c32)ccc1C`, which % of control ([17]; at 1 µM) is on record?
**A.** The % of control was 100%.

**Q.** And the % of control ([17]; at 10 µM)?
**A.** Its % of control is 100%.

**Q.** For `Cn1cc(Nc2nccc(N3CC4CCC(C3)N4C(=O)[C@@H]3CC3(F)F)n2)cn1`, which % of inhibition [18] is on record?
**A.** The % of inhibition was 63%.

**Q.** For `CC(=O)c1cc(-c2ccccc2OCC2CC2)c2ncccn12`, which % of control [19] is on record?
**A.** Its % of control is 85%.

**Q.** `CN(C)C/C=C/C(=O)Nc1ccc(C(=O)N2CCCC(Nc3ncc(Cl)c(-c4c[nH]c5ccccc45)n3)C2)cc1` (stereo not given) was tested. Which % of control [20] did it give?
**A.** The % of control was 78%.

**Q.** What about the % of control [21] of the same molecule?
**A.** The % of control was 70%.

**Q.** For `N#Cc1cccc(-c2c[nH]c3ncnc(N4CCOCC4)c23)c1`, which % of control [22] is on record?
**A.** The % of control was 95%.

From ChEMBL document CHEMBL5465560, “Selectivity Literature for EUbOPEN Chemogenomic Library” (2024)
